Experimental data as given in paper PMC13575467, “Structural and functional characterisation of a reconstructed ancestral strigolactone receptor” (The Plant Journal, 2026).

What was measured:
[1] = biological target: T1, AtD14 (Arabidopsis thaliana, UniProt Q9SQR3); assay: competition of dYLG hydrolysis; format: biochemical; settings: 5 μM dYLG, 0-50 μM competitor, 100 ng protein
T1 construct: gene D14; E. coli codon-optimised, 6xHis-SUMO fusion (pE-SUMO-Amp) from E. coli Rosetta, Ni-NTA, tag kept in assays
T1 sequence (Q9SQR3 1-267): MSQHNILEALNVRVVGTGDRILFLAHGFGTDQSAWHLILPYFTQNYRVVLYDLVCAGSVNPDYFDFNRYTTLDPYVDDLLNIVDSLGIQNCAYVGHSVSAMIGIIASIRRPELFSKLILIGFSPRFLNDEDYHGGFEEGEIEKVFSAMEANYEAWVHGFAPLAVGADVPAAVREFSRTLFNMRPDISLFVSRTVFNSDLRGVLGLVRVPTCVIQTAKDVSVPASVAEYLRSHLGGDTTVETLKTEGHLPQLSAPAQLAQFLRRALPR

[2] = biological target: T1, AtD14; assay: differential scanning fluorimetry; format: binding; settings: Tm lowered (destabilisation); ligand 0-200 μM
[3] = biological target: T2, ancD14 (ancestral D14) (synthetic construct, UniProt Z9A6V6BWX9); assay: differential scanning fluorimetry; format: binding; settings: Tm lowered (destabilisation); ligand 0-200 μM
T2 sequence (Z9A6V6BWX9 1-265): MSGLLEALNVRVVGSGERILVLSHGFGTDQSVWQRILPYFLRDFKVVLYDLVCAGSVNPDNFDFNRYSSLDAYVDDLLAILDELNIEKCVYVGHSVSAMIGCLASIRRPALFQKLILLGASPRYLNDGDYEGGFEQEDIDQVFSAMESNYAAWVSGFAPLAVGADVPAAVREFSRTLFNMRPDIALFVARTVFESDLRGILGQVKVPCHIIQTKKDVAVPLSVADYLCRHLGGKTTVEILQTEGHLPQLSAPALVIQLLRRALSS

[4] = biological target: T1, AtD14; assay: differential scanning fluorimetry; format: binding; settings: Tm lowered (destabilisation); ligand 0-200 μM; remark: listed apart in the source
[5] = biological target: T2, ancD14 (ancestral D14); assay: differential scanning fluorimetry; format: binding; settings: Tm lowered (destabilisation); ligand 0-200 μM; remark: listed apart in the source
[6] = biological target: T2, ancD14 (ancestral D14); assay: competition of dYLG hydrolysis; format: biochemical; settings: 5 μM dYLG, 0-50 μM competitor, 100 ng protein

Row | SMILES | IC50 [1] | dTm (decrease in melting temperature) [2] [°C] | dTm (decrease in melting temperature) [3] [°C] | dTm [4] | dTm [5] | IC50 [6]
1 | O=C1C=C[C@@H](O/C=C2/C(=O)O[C@H]3c4ccccc4C[C@@H]23)O1 [dGR24^ent-5DS] | AtD14 activity was inhibited by all four enantiomers | – | – | – | – | –
2 | CC1=C[C@H](O/C=C2/C(=O)O[C@@H]3c4ccccc4C[C@H]23)OC1=O [GR24^5DS] | GR24^5DS was a very effective competitor for AtD14 | 6.1 | 6.6 | – | – | –
3 | CC1=C[C@@H](O/C=C2/C(=O)O[C@H]3c4ccccc4C[C@@H]23)OC1=O [GR24^ent-5DS] | AtD14 activity was inhibited by all four enantiomers | – | – | AtD14 was thermally destabilised by both GR24^5DS and GR24^ ent‐5DS | albeit with a comparatively muted response to GR24^ ent‐5DS | GR24^ ent‐5DS also competed well with ancD14
